Columns and labels:
tobacco seedlings = test: Polar auxin transport interference test (NPA in plant culture medium with MVOCs); assay type: in vivo, Nicotiana tabacum; conditions: 10 μM NPA, 20 days
Experimental: In vitro containment conditions for fungal cultures were modified to utilize culture tube closure or cap (3×4 cm, diameter×length, closure for 25 mm culture tubes, Sigma C5791) in order to mitigate problems related to condensation build-up inside the filter-sealed microcentrifuge tubes that could suffocate growing fungus and reduce MVOC emission, as subsequently noticed. For each sterile closure cap, 5 ml semi-solid MS medium was added and 10 μl of conidial suspension at a density of 1×10^5 CFU per ml was subsequently introduced. The fungal culture in the closure was then placed in a Magenta™ GA7 vessel that contains tobacco seedlings. For controls, a blank culture cap was added. All experiments were repeated three times. Each involved three treated and untreated vessels, respectively, and three replicate plants for each vessel. Cultures were placed under light conditions with a 16-h photoperiod at 25° C. Plants were treated with 10 or 20 d of fungal exposure duration. Regardless of exposure duration used, plant growth was monitored and compared with controls without fungal cultures at the end of 20 d after introduction of fungal cultures. For polar auxin transport interference tests, 10 μM auxin transport inhibitor N-1-naphthylphthalamic acid (NPA) is incorporated in plant culture medium and used to assess plant response in the presence of MVOCs. […]

[1] = NPA as low as 5 μM; cited from earlier work
[2] = test system: peach rootstock 'Bailey-OP' (Prunus persica); test: Root primordia induction from peach in vitro shoots on mLP with IBA; assay type: in vivo
Experimental: A two-step process was tested to induce roots from in vitro shoots and establish plants in the greenhouse. In vitro shoots of the peach rootstock ‘Bailey-OP’ (Prunus persica) of longer than 2 cm in height were first transferred to a modified Lepoivre LP medium (mLP) containing basal salts of LP medium (Quorin and Lepoivre, Acta Hort. 78:437-442, 1977) and a vitamin mixture composed of 1.0 mg/L thiamine-HCl, 1.0 mg/L nicotinic acid, 1.0 mg/L pyridoxine-HCl, 4.0 mg/L glycine, 0.2 mg/L biotin and 2.0 mg/L Ca-pathothenate (mLP) supplemented with various concentrations of indole-3-butyric acid (IBA) and cultured for two weeks to induce root primordia. The IBA concentrations ranged from 0.5 to 2.0 mg/L. Shoots with root primordia at the base were then taken out and separated into two groups. The first group was cultured on mLP medium without any growth regulators for continuous plant development as a control, whereas the second group was maintained on a similar growth regulator-free mLP medium but with a culture tube closure containing MVOC-emitting fungus of C. sp isolate TC09 (Accession No. NRRL 67603).

| Structure (SMILES) | effect on root length, number of leaves and largest leaf length of C. sp treated plants (tobacco seedlings) | lateral root formation (tobacco seedlings) | effect on stimulatory effects of Fusarium oxysporum MVOCs on plant biomass increase [1] | root formation efficiency ([2]; 0.5 mg/L IBA) | root formation frequency ([2]; 1.0 mg/L IBA) | root induction efficiency ([2]; 1.5 mg/L IBA) | root induction efficiency ([2]; 2.0 mg/L IBA) |
| --- | --- | --- | --- | --- | --- | --- | --- |
| O=C(O)c1ccccc1C(=O)Nc1cccc2ccccc12 [NPA, N-1-naphthylphthalamic acid] | remained similar | arrested lateral root formation | completely negating | – | – | – | – |
| O=C(O)CCCc1c[nH]c2ccccc12 [IBA, indole-3-butyric acid] | – | – | – | very low root formation efficiency | up to 70% | great reduction in root induction efficiency | less than 20% |

Source: patent US11254907B2, “Fungal volatile organic compound enhances plant s growth characteristics” (The United States of America as represented by the …, priority 2018, dated 2022)
